According to patent publication US20110262490A1, “POLYMER-AGENT CONJUGATES, PARTICLES, COMPOSITIONS, AND RELATED METHODS OF USE” (priority 2009, published 2011):
Where “and” joins values, the source holds several entries; their conditions need not be identical. Identical values can stand only once. Like-named read-outs stand apart in the source and are kept apart here.

What was measured:
[1] = system: B16.F10 tumor; assay: Efficacy and tolerability in B16.F10 murine melanoma model (Example 43); assay type: in vivo, mouse
Experimental: Refer to table for detailed description of formulations.
Tumor volume was calculated with the following equation: (width×width×length)/2 mm^3.

[2] = system: HCT-116 tumor; assay: In vivo efficacy in HCT-116 colon xenograft model (Example 44); set-up: species or system mouse; conditions: 30 mg/kg IV weekly×2
Experimental: HCT-116 cells were grown in culture to confluency in McCoy's 5a medium containing 10% FBS and 1% penicillin/streptomycin and then resuspended in McCoy's 5a (passage 4). This suspension of HCT-116 cells (density=3.7×10^6 cells/mL) was implanted subcutaneously above the right hind leg of male CD-1 nude mice on day 1.

[3] = system: SK-OV-3 tumor; assay: In vivo efficacy in SK-OV-3 ovarian human xenograft model (Example 45); set-up: species or system mouse
Experimental: SK-OV-3 cells were grown in culture to confluency in RPMI medium containing 10% FBS and 1% penicillin/streptomycin and then resuspended in RPMI (passage 4) for implantation into mice. This suspension of SK-OV-3 cells (density=30×10^6 cells/mL) was implanted into the mammary gland of female CD-1 nude mice on Day 1. […]

[4] = system: MDA-MB-435 tumor; assay: In vivo efficacy in MDA-MB-435 melanoma human xenograft model (Example 46); set-up: species or system mouse
Experimental: MDA-MB-435 cells were grown in culture to confluency in RPMI medium containing 10% FBS and 1% penicillin/streptomycin and then resuspended in RPMI (passage 4) for implantation into mice. A volume of 0.1 mL containing 4.0×10^6 cells MDA-MB-435 cells were implanted into the mammary gland of female CD-1 nude mice on Day 1.

[5] = Tolerability in normal male C57BL/6 non-tumor-bearing mice (Example 47); assay type: in vivo, mouse; conditions: for Ataxia: n=5
Experimental: Treatments were administered intravenously on a q7dx2 schedule, i.e., two treatments seven days apart (the first treatment was on Day one). The study ended on Day 14, six days after the 2nd treatment. Blood was collected for complete blood count (CBC) and serum chemistry. Leg muscles were collected so that nerve degeneration could be assessed from the sciatic nerve.

[6] = system: murine melanoma tumor; assay: Efficacy and survival in aggressive murine melanoma model at MTD (Example 92); assay type: in vivo, mouse; conditions: every other week dosing at MTD
Experimental: Thus, the sustained release properties of a particle according to exemplary particle 1 supports less frequent dosing of patients. Methods: Tumor-bearing mice were injected with a particle according to exemplary particle 1 or docetaxel at their respective MTD. See, for example, FIGS. 6a and 6b.

[7] = system: MDA-MB-435 tumor; assay: MDA-MB-435 breast xenograft model, delayed treatment (Example 93); assay type: in vivo, mouse
Excerpt: See, for example, FIG. 7.

[8] = system: ADR-RES tumor;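 further: tumor volume and body weight recorded thrice weekly while dosing and twice weekly afterwards, with animals checked for morbidity and adverse effects on the same schedule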
Experimental: ADR-RES cells were grown in culture to 85-90% confluency in RPMI medium supplemented with 10% fetal bovine serum (FBS), 1% glutamine and 1% penicillin/streptomycin.
The treatments were administered IV into the tail vein at a dose volume of 10 and 20 mL/kg for 30 and 60 mg/kg respectively, beginning on post-implantation day 47, when the mean tumor volume was ca. 150 mm^3. Body weight and tumor volume were measured for three times a week during the dosing period and twice a week thereafter. In addition, animals were also monitored for any morbidity and adverse effects for three times a week during the dosing period and twice a week thereafter.
Tumor volume was calculated with (width×width×length)/2 mm^3 formula. Efficacy was determined by tumor growth inhibition (TGI), tumor growth delay (TGD) and survival. Tumor growth inhibition (TGI) is represented as % and calculated as (1−(treated tumor volume/control tumor volume))×100 when the control group mean tumor volume reached ≧1000 mm^3. Tumor growth delay (TGD) is calculated by subtracting the day when the vehicle treated group reached the maximum tumor size 1000 mm^3 from the day when the treatment group tumor size reached 1000 mm^3.

[9] = system: B16.F10 tumor; assay: Efficacy and tolerability in mouse melanoma model B16.F10 (Example 58)
Experimental: B16.F10 cells were grown in culture to 85-90% confluency in MEM-alpha medium supplemented with 10% fetal bovine serum (FBS) and 1% penicillin/streptomycin. Cells were removed from the culture flask using 0.05% trypsin (passage=4), re-suspended in PBS (density=10×10^6 cells/mL) and were implanted subcutaneously (1×10^6 cells in 100 μL MEM-alpha medium/mouse) into the right flank of male C57BL/6 mice on day 1.
Body weight and tumor volume were measured three times a week. In addition, animals were also monitored for any morbidity and adverse effects three times a week.
Tumor volume was calculated with (width×width×length)/2 mm^3 formula. Efficacy was determined by tumor growth inhibition (TGI), tumor growth delay (TGD) and survival. Tumor growth inhibition (TGI) is represented as % and calculated as (1−(treated tumor volume/control tumor volume))×100 when the control group mean tumor volume reached ≧3000 mm^3. Tumor growth delay (TGD) is calculated by subtracting the day when the vehicle treated group reached the maximum tumor size 3000 mm^3 from the day when the treatment group tumor size reached 3000 mm^3. The criterion at which a mouse was removed from the study was tumor volume ≧3000 mm^3.

[10] = system: B16.F10 tumor; assay: Efficacy and tolerability in mouse melanoma model B16.F10 (Example 61)
Experimental: Briefly, ATP and oxygen in viable cells reduce luciferin to oxyluciferin in the presence of luciferase to produce energy in the form of light. B16.F10 cells were grown in culture to 85-90% confluency in MEM-alpha medium supplemented with fetal bovine serum (FBS) and 1% penicillin/streptomycin. Cells were removed from the flask using 0.05% trypsin (passage=4), re-suspended in PBS (density=10×10^6 cells/mL) and were implanted subcutaneously (1×10^6 cells in 100 μL PBS/mouse) into the right flank of male C57BL/6 mice on day 1.
The treatments were administered IV into the tail vein at a dose volume of 10 ml/kg, beginning on post-implantation day 5, when the mean tumor volume was ca. 60 mm^3 Animals were monitored for any morbidity and adverse effects three times a week. In addition, body weight and tumor volume were also measured three times a week.
Tumor volume was calculated with (width×width×length)/2 mm^3 formula. Efficacy was determined by tumor growth inhibition (TGI), tumor growth delay (TGD) and survival. Tumor growth inhibition (TGI) is represented as % and calculated as (1−(treated tumor volume/control tumor volume))×100 when the control group mean tumor volume reached ≧3000 mm^3 Tumor growth delay (TGD) is calculated by subtracting the day when the vehicle treated group reached the maximum tumor size 3000 mm^3 from the day when the treatment group tumor size reached 3000 mm^3. The criterion at which a mouse was removed from the study was tumor volume ≧3000 mm^3.

[11] = 15 mg/kg IV q3dq4dx3, listed as Docetaxel
[12] = 15 mg/kg IV three times, once every week
[13] = 30 mg/kg IV 1/biwk×3, listed as free docetaxel
[14] = 30 mg/kg IV 1/wk×3, listed as free docetaxel

## CC(=O)O[C@@]12CO[C@@H]1C[C@H](O)[C@@]1(C)C(=O)[C@H](O)C3=C(C)[C@@H](OC(=O)[C@H](O)[C@@H](NC(=O)OC(C)(C)C)c4ccccc4)C[C@@](O)([C@@H](OC(=O)c4ccccc4)[C@H]21)C3(C)C [Free docetaxel, docetaxel]
[1]; 15 mg/kg IV q3dq4dx3
  Tumor growth inhibition (TGI): 90%
[1]; [11]
  Maximum body weight loss: 11% and 12%
  Tumor growth delay (TGD): 11 days and 12 days
[1]; 15 mg/kg IV q4dq3dx3
  Maximum body weight loss: 11%
  Tumor growth delay (TGD): 11 days
  Tumor growth inhibition (TGI): 90%
[1]; [12]
  Maximum body weight loss: 11%
  Tumor growth delay (TGD): 11 days
  Tumor growth inhibition (TGI): approximately 90%
[1]; 30 mg/kg IV q7dx3
  Maximum body weight loss: 11%
  Tumor growth delay (TGD): 17 days
  Tumor growth inhibition (TGI): 90%
[1]; 30 mg/kg q7dx3
  Day tumor volume end point (3000 mm^3) reached: 37 days
[1]; 60 mg/kg IV q14dx2
  Tumor growth delay (TGD): 11 days
  Tumor growth inhibition (TGI): 71%
[1]; 60 mg/kg IV q14dx2, listed as Docetaxel
  Maximum body weight loss: 0%
[1]; 60 mg/kg IV q14dx2, listed as docetaxel
  Maximum body weight loss: did not show any body weight loss
[1]; 60 mg/kg q14dx2
  Day tumor volume end point (3000 mm^3) reached: 29 days
[2]
  Maximum body weight loss: 14%
  Tumor growth inhibition (TGI): 88%
[2]; end point 1000 mm^3
  TGD: 22 days
[3]; 15 mg/kg IV weekly×2
  Tumor growth delay (TGD): 18 days
[3]; 30 mg/kg IV weekly×2
  Ataxia: did not cause ataxia
  Maximum body weight loss: 13%
  Tumor growth delay (TGD): 42 days
[3]; 60 mg/kg IV weekly×2
  Body weight loss: greater than 20%
[4]; 15 mg/kg IV Days 21 and 28
  Maximum body weight loss: 10%
[4]; 30 mg/kg IV Days 21 and 28
  Maximum body weight loss: 14%
[4]; 30 mg/kg IV weekly×2
  Ataxia: did not cause ataxia
[4]; 60 mg/kg IV Days 21 and 28 (mean tumor 150 mm^3)
  Body weight loss: greater than 20%
[4]; 60 mg/kg IV weekly×2, listed as docetaxel
  Ataxia: developed ataxia
[4]; 60 mg/kg IV weekly×2, listed as free docetaxel
  Ataxia: Ataxia was observed four days after the second treatment
[5]; 30 mg/kg IV q7dx2
  Body weight above initial on Day 14: 3%
[5]; 30 mg/kg q7dx2
  Mice developing ataxia: no mice
  Ataxia: 0%
[5]; 30 mg/kg q7dx2, Day 14
  Lymphocyte mean: 4350 cells/μL
  Neutrophil mean: 556 cells/μL
  WBC # mean: 5.1 ×1000 cells/μL
[5]; 45 mg/kg IV q7dx2
  Body weight above initial on Day 14: 2%
[5]; 45 mg/kg q7dx2, Day 14
  Lymphocyte mean: 6780 cells/μL
  Mice developing ataxia: One mouse
  Neutrophil mean: 752 cells/μL
  WBC # mean: 7.8 ×1000 cells/μL
[5]; 45 mg/kg q7dx2
  Ataxia: 20%
[5]; 60 mg/kg IV q7dx2, Day 14
  Weight loss after second treatment, by end of study: 19%
[5]; 60 mg/kg q7dx2
  Mice developing ataxia: Five out of five mice
  Ataxia: 100%
[5]; 60 mg/kg q7dx2, Day 14
  Lymphocyte mean: 5590 cells/μL
  Neutrophil mean: 470 cells/μL
  WBC # mean: 6.2 ×1000 cells/μL
[5]; q7dx2
  Effect on serum chemistry parameters: did not affect any serum chemistry parameter at doses up to 60 mg/kg
[6]
  Tumor growth suppression: not sufficient to suppress tumor growth
[7]
  Effect on tumors allowed to grow to 500 mm^3: unable to suppress tumor growth over this time period
[8]; 30 mg/kg IV 1/biwk×3
  Day mean tumor volume endpoint (≧1000 mm^3) reached: 99 days
  Day of 50% survival: 102 days
  Hind limb paralysis: did not cause any significant body weight loss (<10%) or hind limb paralysis
  Increase in TGD: 0%
  Maximum body weight loss: 9%
  Tumor growth delay (TGD): 0 days
  Tumor growth inhibition (% TGI): 0%
[8]; [13]
  Tumor growth delay (TGD): no TGD
  Tumor growth inhibition (% TGI): 0%
[8]; 30 mg/kg IV 1/wk×2
  Day mean tumor volume endpoint (≧1000 mm^3) reached: 109 days
  Day of 50% survival: 106 days
  Hind limb paralysis: did not cause any significant body weight loss (<10%) or hind limb paralysis
  Increase in TGD: 13%
  Maximum body weight loss: 6%
  Tumor growth delay (TGD): 7 days
  Tumor growth inhibition (% TGI): 23%
[8]; 30 mg/kg IV 1/wk×2, listed as free docetaxel
  Tumor growth inhibition (% TGI): 23%
[8]; 60 mg/kg IV 1/biwk×3
  Hind limb paralysis: severe hind limb paralysis
  Maximum body weight loss: 21%
[8]; 60 mg/kg IV 1/wk×2
  Day mean tumor volume endpoint (≧1000 mm^3) reached: 106 days
  Day of 50% survival: 106 days
  Hind limb paralysis: hind limb paralysis after the 2nd injection followed by recovery
  Increase in TGD: 7%
  Maximum body weight loss: 23%
  Tumor growth delay (TGD): 4 days
  Tumor growth inhibition (% TGI): 14%
[8]; 60 mg/kg IV 1/wk×2, listed as free docetaxel
  Tumor growth inhibition (% TGI): 14%
[9]; 30 mg/kg 1/wk×3
  Day of 0% survival: 45 days
  Day of 50% survival: 40 days
[9]; 30 mg/kg IV 1/wk×3
  Day mean tumor volume endpoint (≧3000 mm^3) reached: 43 days
  Increase in TGD: 115%
  Maximum body weight loss: 12%
  Tumor growth delay (TGD): 23 days
  Tumor growth inhibition (% TGI): 92%
[9]; [14]
  Maximum body weight loss: did not cause any significant body weight loss
  Tumor growth inhibition (% TGI): 92%
[10]; 15 mg/kg IV 1/wk×3
  Day mean tumor volume endpoint (≧3000 mm^3) reached: 29 days
  Day of 0% survival: 43 days
  Day of 50% survival: 29 days
  Increase in TGD: 45%
  Maximum body weight loss: 2%
  Tumor growth delay (TGD): 9 days
  Tumor growth inhibition (% TGI): 75%
[10]; 15 mg/kg IV 1/wk×3, listed as free docetaxel
  Tumor growth inhibition (% TGI): 75%
[10]; 30 mg/kg IV 1/wk×3
  Maximum body weight loss: 12% and 14%
  Tumor growth delay (TGD): 23 days and 18 days
  Tumor growth inhibition (% TGI): 92% and 81%
[10]; [14]
  Day mean tumor volume endpoint (≧3000 mm^3) reached: 43 days and 38 days
  Day of 0% survival: 45 days and 43 days
  Day of 50% survival: 40 days and 36 days
  Increase in TGD: 115% and 90%
  Tumor growth delay (TGD): 23 days and 18 days
  Tumor growth inhibition (% TGI): 92% and 81%
